Experimental data as given in patent publication US20050176764A1, “Medicine for treating cancer” (KOWA CO., LTD, priority 2002, published 2005).
Structures can show the parent of a compound that is named as a salt. Values belong to the compound of their own block, whether it stands above or below them.

Columns and labels:
Type in all cases: cell-based
HCT-15 (colon cancer) = assay: Cancer cell growth inhibition, WST-1 colorimetry; conditions: Homo sapiens, HCT-15, 48 hours
Method: (§1) Cultured human cancer cells were added to a 96-well plate. On the following day, a solution of each of the compounds prepared in Examples 13, 23, 29, 36, and 114 (in five concentrations resulting from 10-fold stepwise dilution: 10^−4, 10^−5, 10^−6, 10^−7, or 10^−8 M) was added, followed by incubation for 48 hours. Subsequently, % growth of the cells was measured through colorimetry by use of a WST-1 (Dojindo) reagent for measurement of cell count. From the measurement data, % growth was calculated by use of the following equation, and 50% growth inhibitory concentration (GI50) was calculated from the dose-response curve of each compound: % growth={[(OD as measured after 48 hours from addition of compound)−(OD at time zero)]/[(OD of control as measured after 48 hours)−(OD at time zero)]}×100.

MCF-7 (breast cancer) = assay: Cancer cell growth inhibition, WST-1 colorimetry; conditions: Homo sapiens, MCF7, MCF-7, 48 hours
Method: as §1

MKN-45 (stomach cancer) = assay: Cancer cell growth inhibition, WST-1 colorimetry; conditions: Homo sapiens, MKN-45, 48 hours
Method: as §1

MKN-74 (stomach cancer) = assay: Cancer cell growth inhibition, WST-1 colorimetry; conditions: Homo sapiens, MKN-74, 48 hours
Method: as §1

[1] = tested on: cultured human cancer cells; assay: Cancer cell growth inhibition, WST-1 colorimetry, overall statement; conditions: result in words, 48 hours
Method: as §1

[2] = tested on: Human umbilical venous endothelial cells (HUVECs); assay: Gene expression analysis (GeneChip HuGene FL array) in TNFα-stimulated HUVECs; conditions: Example 10 at 1 μM, TSA at 10 μM
Method: Human umbilical venous endothelial cells (HUVECs) were placed in 10 cm dishes (3×10^5 cells/dish). Two days thereafter, Trichostatin A (TSA, produced by Upstate) dissolved in dimethyl sulfoxide (DMSO) and the compound prepared in Example 10 dissolved in DMSO were individually added to a final concentrations of 10 μM and 1 μM, respectively. Each sample was stimulated with TNFα (final concentration: 10 ng/mL, Genzyme-Techne). Four hours later, total RNA was extracted with ISOGEN (Nippon Gene Co., Ltd.). The subsequent procedure was performed in accordance with the manufacturer's protocol (Affymetrix). From the thus obtained total RNA, mRNA was purified by a conventional method. cDNA was synthesized from the purified mRNA, and then biotin-labeled cRNA was synthesized by in vitro transcription. The cRNA was purified and subjected to heat treatment for fragmentation. The fragmented cRNA was used in gene expression analysis.
Method of gene expression analysis: The thus-prepared fragmented cRNA was injected to a HuGene human FL array (Affymetrix), and allowed to hybridize for 16 hours at 45° C. After washing, streptavidin labeled with phycoerythrin, and biotinylated anti-streptavidin antibody were added to each sample in order to cause reaction. Gene expression information was read by use of a dedicated scanner for GeneChip™ (Hewlett Packard). The thus-obtained information was analyzed with GeneChip Software (Affymetrix) for comparison in terms of level of expression.

[3] = out of 52 genes increased twice or more by TNFα

GI50 (HCT-15 (colon cancer)): 800 nM
GI50 (MCF-7 (breast cancer)): 700 nM
GI50 (MKN-45 (stomach cancer)): 3000 nM
GI50 (MKN-74 (stomach cancer)): 400 nM
Compound: COc1cc(-c2cc(CN3CCC(N(Cc4ccnc(-c5cc(OC)c(OC)c(OC)c5)c4)c4ccc5c(c4)OCO5)CC3)ccn2)cc(OC)c1OC [Example 29, 4-[N-(3,4-methylenedioxyphenyl)-N-[[2-(3,4,5-trimethoxyphenyl)pyridin-4-yl]methyl]amino]-1-[[2-(3,4,5-trimethoxyphenyl)pyridin-4-yl]methyl] piperidine Trihydrochloride]
growth inhibitory effect on cultured human cancer cells [1]: strong growth inhibitory effect

GI50 (HCT-15 (colon cancer)): 800 nM
GI50 (MCF-7 (breast cancer)): 700 nM
GI50 (MKN-45 (stomach cancer)): 3000 nM
GI50 (MKN-74 (stomach cancer)): 700 nM
Compound: COc1ccc(N(Cc2cncc(-c3cc(OC)c(OC)c(OC)c3)c2)C2CCN(Cc3ccnc(-c4cc(OC)c(OC)c(OC)c4)c3)CC2)cc1 [Example 13, 4-[N-(4-methoxyphenyl)-N-[[5-(3,4,5-trimethoxyphenyl)pyridin-3-yl]methyl]amino]-1-[[2-(3,4,5-trimethoxyphenyl)pyridin-4-yl]methyl]piperidine Trihydrochloride]
growth inhibitory effect on cultured human cancer cells [1]: strong growth inhibitory effect

GI50 (HCT-15 (colon cancer)): 1000 nM
GI50 (MCF-7 (breast cancer)): 700 nM
GI50 (MKN-45 (stomach cancer)): 2000 nM
GI50 (MKN-74 (stomach cancer)): 600 nM
Compound: COc1cc(-c2cc(CN3CCC(N(C)Cc4ccnc(-c5cc(OC)c(OC)c(OC)c5)c4)CC3)ccn2)cc(OC)c1OC [Example 36, 4-[N-methyl-N-[[2-(3,4,5-trimethoxyphenyl)pyridin-4-yl]methyl]amino]-1-[[2-(3,4,5-trimethoxyphenyl)pyridin-4-yl]methyl]piperidine Tetrahydrochloride]
growth inhibitory effect on cultured human cancer cells [1]: strong growth inhibitory effect

GI50 (HCT-15 (colon cancer)): 900 nM
GI50 (MCF-7 (breast cancer)): 600 nM
GI50 (MKN-45 (stomach cancer)): 4000 nM
GI50 (MKN-74 (stomach cancer)): 700 nM
Compound: COc1cc(OC)cc(N(Cc2ccnc(-c3cc(OC)c(OC)c(OC)c3)c2)C2CCN(Cc3ccnc(-c4cc(OC)c(OC)c(OC)c4)c3)CC2)c1 [Example 23, 4-[N-(3,5-dimethoxyphenyl)-N-[[2-(3,4,5-trimethoxyphenyl)pyridin-4-yl]methyl]amino]-1-[[2-(3,4,5-trimethoxyphenyl)pyridin-4-yl]methyl]piperidine Trihydrochloride]
growth inhibitory effect on cultured human cancer cells [1]: strong growth inhibitory effect

Compound: CC(/C=C/C(=O)NO)=C\[C@@H](C)C(=O)c1ccc(N(C)C)cc1 [TSA, Trichostatin A, reference compound]
mRNA expression level of ABC transporter B2 ([2]; TNFα 10 ng/mL, 4 h): 66
mRNA expression level of B94 ([2]; TNFα 10 ng/mL, 4 h): 924
mRNA expression level of BCL3 ([2]; TNFα 10 ng/mL, 4 h): 198
mRNA expression level of Cox-2 ([2]; TNFα 10 ng/mL, 4 h): 30
mRNA expression level of EphrinA1 ([2]; TNFα 10 ng/mL, 4 h): 113
mRNA expression level of Gro1 ([2]; TNFα 10 ng/mL, 4 h): 855
mRNA expression level of I kappa B alpha ([2]; TNFα 10 ng/mL, 4 h): 1363
mRNA expression level of IAP homolog B ([2]; TNFα 10 ng/mL, 4 h): 99
mRNA expression level of ICAM-1 ([2]; TNFα 10 ng/mL, 4 h): 2303
mRNA expression level of IFNGR2 ([2]; TNFα 10 ng/mL, 4 h): 209
mRNA expression level of IL-7R ([2]; TNFα 10 ng/mL, 4 h): 44
mRNA expression level of M-Ras-regulated GEF ([2]; TNFα 10 ng/mL, 4 h): 39
mRNA expression level of MCP-1 ([2]; TNFα 10 ng/mL, 4 h): 46
mRNA expression level of Na/K-ATPase beta-1 ([2]; TNFα 10 ng/mL, 4 h): 148
mRNA expression level of Nef associated factor 1 ([2]; TNFα 10 ng/mL, 4 h): 396
mRNA expression level of OB-cadherin-2 ([2]; TNFα 10 ng/mL, 4 h): 62
mRNA expression level of RDC1 ([2]; TNFα 10 ng/mL, 4 h): 21
mRNA expression level of Spliceosomal Protein Sap 49 ([2]; TNFα 10 ng/mL, 4 h): 79
mRNA expression level of TRAF1 ([2]; TNFα 10 ng/mL, 4 h): 262
mRNA expression level of VCAM-1 ([2]; TNFα 10 ng/mL, 4 h): 96
mRNA expression level of beta-galactoside alpha-2; 6-sialyltransferase ([2]; TNFα 10 ng/mL, 4 h): 19
mRNA expression level of caspase-like apoptosis regulatory protein 2 (clarp) ([2]; TNFα 10 ng/mL, 4 h): 50
mRNA expression level of cytoplasmic antiproteinase 2 (CAP2) ([2]; TNFα 10 ng/mL, 4 h): 37
mRNA expression level of ets-2 ([2]; TNFα 10 ng/mL, 4 h): 38
mRNA expression level of exodus-1 ([2]; TNFα 10 ng/mL, 4 h): 1206
mRNA expression level of fractalkine ([2]; TNFα 10 ng/mL, 4 h): 38
mRNA expression level of junB ([2]; TNFα 10 ng/mL, 4 h): 123
mRNA expression level of lymphotoxin beta ([2]; TNFα 10 ng/mL, 4 h): −40
mRNA expression level of metalloproteinase stromelysin-2 ([2]; TNFα 10 ng/mL, 4 h): 69
mRNA expression level of ninjurin1 ([2]; TNFα 10 ng/mL, 4 h): 150
mRNA expression level of p50-NF-kappa B homolog ([2]; TNFα 10 ng/mL, 4 h): 57
number of genes whose expression was enhanced [2, 3]: 6 genes
number of genes whose expression was inhibited [2, 3]: 25 genes

GI50 (HCT-15 (colon cancer)): 800 nM
GI50 (MCF-7 (breast cancer)): 600 nM
GI50 (MKN-45 (stomach cancer)): 2000 nM
GI50 (MKN-74 (stomach cancer)): 200 nM
Compound: COc1cc(-c2cncc(CN(c3ccc(SC)cc3)C3CCN(Cc4ccnc(-c5cc(OC)c(OC)c(OC)c5)c4)CC3)c2)cc(OC)c1OC [Example 114]
growth inhibitory effect on cultured human cancer cells [1]: strong growth inhibitory effect
